Measured values reported in patent publication US9499811B2, “Ligation enhancement” (New England Biolabs, Inc., priority 2011, dated 2016).
Several values for one entry are separate records, joined by “and”; a condition that tells them apart may be missing. Equal entries are not always repeated. Entries after “also recorded” stand apart in the source; their conditions may differ.

Tests used:
[1] = test system: chemically competent DH5 alpha E. coli cells; test: Mock ligation with supercoiled pUC19 DNA and transformation (control); assay type: cell-based; settings: 12% 1,2-PrD; for Transformants from 2 pg SC DNA: supercoiled pUC19
Procedure: (§1) For chemically competent cell transformations, the cell-DNA mixture was incubated on ice for 30 min, heat-shocked at 42° C. for 30 sec, then returned to ice for 5 min. A volume of 950 μl SOC medium (2% vegetable peptone or Tryptone, 0.5% yeast extract, 10 mM NaCl, 2.5 mM KCl, 10 mM MgCl2, 10 mM MgSO4 and 20 mM glucose) was added to the cell-DNA mixture, followed by a one hr 37° C. outgrowth period with agitation. A volume of 25-50 μl of appropriately diluted cells in SOC was spread onto Rich Agar plates (composition per liter: 10 g soy peptone, 5 g yeast extract, 10 g NaCl, 1 g MgCl2-6H2O, 1 g dextrose, 15 grams agar) supplemented with 100 μg/ml ampicillin. Plates were inverted and incubated for 16 hrs at 37° C., followed by quantification of total colony numbers.
Mock DNA ligations were set up with 1 ng of supercoiled pUC19 DNA in 1× regular DNA ligase buffer in the presence and absence of 2000 units T4 DNA ligase and with or without 12% 1,2-PrD. Ligation reactions were conducted using the standard protocol in Example 1 and transformations with chemically competent DH5 alpha E. coli cells. 40 μl of a 1:20 dilution of the 1 ml SOC outgrowth containing 2 pg supercoiled DNA was plated onto agarose plates and incubated overnight.
This illustrates the enhancement is at the ligation step and not the transformation step.

T4 DNA ligase [2] = molecular target: T1, T4 DNA ligase (Enterobacteria phage T4, UniProt P00970); test: Cloning of a 500 bp amplicon made by Taq DNA polymerase into a T-tailed vector (ligation test system a); assay type: biochemical; parameters: purchased NEB (New England Biolabs), Ipswich, Mass. #M0202; settings: enhancer at 12%; no addition = 1-fold; single-base overhangs
T1 sequence (P00970 1-487): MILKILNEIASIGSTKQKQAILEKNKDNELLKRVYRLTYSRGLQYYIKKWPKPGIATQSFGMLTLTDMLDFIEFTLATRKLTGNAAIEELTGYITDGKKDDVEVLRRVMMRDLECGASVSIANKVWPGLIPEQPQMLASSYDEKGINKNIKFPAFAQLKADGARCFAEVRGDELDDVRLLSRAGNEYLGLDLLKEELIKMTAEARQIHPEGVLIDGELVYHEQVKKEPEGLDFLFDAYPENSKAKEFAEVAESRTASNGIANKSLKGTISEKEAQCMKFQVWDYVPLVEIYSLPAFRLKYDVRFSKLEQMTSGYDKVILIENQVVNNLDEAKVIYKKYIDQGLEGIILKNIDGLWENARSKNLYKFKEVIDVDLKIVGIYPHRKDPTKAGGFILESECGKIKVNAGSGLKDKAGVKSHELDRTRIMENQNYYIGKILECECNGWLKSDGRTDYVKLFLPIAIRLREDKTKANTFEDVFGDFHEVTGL
Procedure: All were tested side-by-side using two ligation test systems which were: (a) cloning of a 500 bp amplicon made by Taq DNA polymerase into a T-tailed vector; and (b) recircularization of an AhdI-linearized plasmid. Both ligation test systems used DNA with single-base overhangs.
(§2) The reaction mixtures contained DNA at 50-100 ng and 1,2-PrD at different concentrations. 1 μl of regular concentration (NEB, Ipswich, Mass., #M0202; 400 units) or 1 μl of high concentration T4 DNA ligase (NEB, Ipswich, Mass., #M0202; 2000 units) was then added to a final volume of 21 μl in 1×T4 DNA Ligase Buffer (NEB, Ipwich, Mass., #B0202) or 1× Quick Ligase™ Buffer (NEB, Ipswich, Mass., #B2200).
(§3) A standard assay uses 100 ng DNA, 1 μl of T4 DNA ligase, 21 μl 1×T4 DNA ligase buffer and varying amounts of enhancer.
(§4) Ligation reactions were incubated for 10 min at room temperature (25° C.) unless otherwise stated, then placed on ice for 2 min. In some experiments the ligase was heat-killed by incubation at 65° C. for 20 min. The ligation reactions were analyzed by 1% agarose gel electrophoresis to identify DNA species and determine the efficiency of […].
A volume of 2 μl from each ligation reaction was incubated with 50 μl of chemically competent (NEB, Ipswich, Mass., #C2987I) or electrocompetent (NEB, Ipswich, Mass., #C2989K) DH5 alpha E. coli cells.
as §1

T4 DNA ligase [3] = molecular target: T1, T4 DNA ligase; test: Recircularization of AhdI-linearized pUC19 and transformation of NEB Turbo cells (FIGS. 1A-C); assay type: biochemical; parameters: purchased NEB (New England Biolabs), Ipswich, Mass. #M0202; settings: 0, 4%, 6% 1,2-PrD, 400 U T4 DNA ligase, 20 min 16 C
From the text: FIGS. 1A-C show the results of recircularization through ligation of double-stranded linearized plasmid DNA in the presence of increasing amounts of 1,2-PrD. The ligated DNA is subsequently transformed into competent E. coli cells, followed by plating on agar ampicillin selection plates. The extent of successful transformation is illustrated by the numbers of colonies on the plate.
Linearization of the pUC19 plasmid was achieved using AhdI to generate single-base overhangs as described in FIG. 3A. Ligation of the cleaved DNA was performed in a 20 μl ligation reaction containing 100 ng of DNA in the presence and absence of 1,2-PrD and 400 U of T4 DNA ligase was incubated for 20 min at 16° C., then heated to 65° C. for 45 min to inactivate the ligase. Transformation of cells with the ligated DNA was performed using chemically competent NEB Turbo™ cells (NEB, Ipswich, Mass., #C2984H) as described in Example 1 using 2 μl of the ligation mix (containing 10 ng DNA) with an outgrowth period of 20 min.

T4 DNA ligase [4] = molecular target: T1, T4 DNA ligase; test: Ligation efficiency assay (standard assay, various ligases and buffers); assay type: biochemical; parameters: purchased NEB (New England Biolabs), Ipswich, Mass. #M0202; settings: 1%-12% 1,2-PrD; various concentrations and types of DNA ligase, regular and Quick Ligase buffers
Procedure: as §2, §3, §4

CC(O)CO (stereo not drawn) [1,2-PrD, 1,2-propanediol]
Transformants from 2 pg SC DNA ([1]; 2000 U T4 DNA ligase, duplicate reactions): 82 and 73
Transformants from 2 pg SC DNA ([1]; T4 DNA ligase none): 126
Effect on transformation with supercoiled pUC19 DNA ([1]; with or without T4 DNA ligase): not statistically altered; also recorded: does not affect nor interfere with transformation
Cloning Enhancement (T4 DNA ligase [2]): 14-fold
Transformation levels (number of colonies) (T4 DNA ligase [3]): the greater the number of transformants; also recorded: increased transformation levels
Enhancement of ligation (T4 DNA ligase [4]): consistent enhancement of ligation
